According to patent publication US12144802B2, “Pharmaceutical compositions of roflumilast and solvents capable of dissolving high amounts of the drug” (ARCUTIS BIOTHERAPEUTICS, INC., priority 2022, dated 2024):

Assay: solubility (saturation concentration) of roflumilast in solvent-water blends, HPLC after 0.2 micron filtration
Assay type: physicochemical
Details: controlled room temperature
Experimental: The solubility of roflumilast in various solvents was determined. Compositions of roflumilast and the solvents identified in Table 1 were prepared. To prepare the compositions, 10 g of a solvent-water blend was added into a 20 mL clear glass vial. 0.05 g of the active pharmaceutical ingredient (API), roflumilast, was added into the vial. The vial was mixed on a jar roller at controlled room temperature at an appropriate speed. A visual evaluation was performed after shaking. If all of the API was dissolved, an additional 0.05 g of API was added into the vial and further mixing was performed. If any API remained undissolved, the total amount of API added to the vial was recorded. The visual inspection was repeated as necessary until no more API could be dissolved. For each solvent, the solubility was determined by syringe filtering (0.2 micron filter) the solvent blend to remove undissolved roflumilast and determining the amount of dissolved roflumilast using HPLC analysis. Composition of the solvent blends were an equal molar solvent-water mixtures, as well as a 1:2 (weight:weight) solvent-water blends. Transcutol P, which is described for use with roflumilast in U.S. Patent Publication No. 2019/009133, was used as a reference point in Example 1.

## O=C(Nc1c(Cl)cncc1Cl)c1ccc(OC(F)F)c(OCC2CC2)c1 [roflumilast, N-(3,5-dichloropyrid-4-yl)-3-cyclopropylmethoxy-4-difluoromethoxybenzamide]
1:2 solvent to water (weight:weight), reference solvent Transcutol P (111-90-0), 5.00 g solvent, 10.01 g water
  μg roflumilast per mL blend (saturation concentration): 45.01 µg/mL
1:2 solvent to water (weight:weight), solvent 1,2-hexanediol (6920-22-5), 5.02 g solvent, 10.02 g water
  μg roflumilast per mL blend (saturation concentration): 293.26 µg/mL
1:2 solvent to water (weight:weight), solvent 1,2-pentanediol (3174-67-2), 5.01 g solvent, 10.04 g water
  μg roflumilast per mL blend (saturation concentration): 139.71 µg/mL
1:2 solvent to water (weight:weight), solvent 1,3-butylene glycol (107-88-0), 5.01 g solvent, 10.00 g water
  μg roflumilast per mL blend (saturation concentration): 11.27 µg/mL
1:2 solvent to water (weight:weight), solvent 1,3-propanediol (504-63-2), 5.01 g solvent, 10.02 g water
  μg roflumilast per mL blend (saturation concentration): 6.23 µg/mL
1:2 solvent to water (weight:weight), solvent 1,6-hexanediol (629-11-8), 5.01 g solvent, 10.02 g water
  μg roflumilast per mL blend (saturation concentration): 112.31 µg/mL
1:2 solvent to water (weight:weight), solvent 2-(2-butoxy-ethoxy)ethanol (112-34-5), 5.01 g solvent, 10.01 g water
  μg roflumilast per mL blend (saturation concentration): 802.24 µg/mL
1:2 solvent to water (weight:weight), solvent 5-methyloxolan-2-one (108-29-2), 5.01 g solvent, 10.01 g water
  μg roflumilast per mL blend (saturation concentration): 392.14 µg/mL
1:2 solvent to water (weight:weight), solvent Pantolactone (599-04-2), 5.03 g solvent, 10.02 g water
  μg roflumilast per mL blend (saturation concentration): 62.04 µg/mL
1:2 solvent to water (weight:weight), solvent dipropylene glycol (25265-71-8), 5.01 g solvent, 10.01 g water
  μg roflumilast per mL blend (saturation concentration): 34.44 µg/mL
1:2 solvent to water (weight:weight), solvent propylene glycol methyl ethyl acetate (107-98-2), 5.01 g solvent, 10.03 g water
  μg roflumilast per mL blend (saturation concentration): 65.80 µg/mL
Equal molar solvent-water blend, reference solvent Transcutol P (111-90-0), 2.00 g solvent, 14.81 g water
  μg roflumilast per mL blend (saturation concentration): 2.55 µg/mL
Equal molar solvent-water blend, solvent 1,2-hexanediol (6920-22-5), 2.00 g solvent, 13.24 g water
  μg roflumilast per mL blend (saturation concentration): 37.67 µg/mL
Equal molar solvent-water blend, solvent 1,2-pentanediol (3174-67-2), 2.21 g solvent, 12.80 g water
  μg roflumilast per mL blend (saturation concentration): 4.16 µg/mL
Equal molar solvent-water blend, solvent 1,3-butylene glycol (107-88-0), 2.52 g solvent, 12.51 g water
  μg roflumilast per mL blend (saturation concentration): 1.46 µg/mL
Equal molar solvent-water blend, solvent 1,3-propanediol (504-63-2), 3.00 g solvent, 12.60 g water
  μg roflumilast per mL blend (saturation concentration): 2.77 µg/mL
Equal molar solvent-water blend, solvent 1,6-hexanediol (629-11-8), 2.00 g solvent, 13.11 g water
  μg roflumilast per mL blend (saturation concentration): 5.81 µg/mL
Equal molar solvent-water blend, solvent 2-(2-butoxy-ethoxy)ethanol (112-34-5), 1.50 g solvent, 13.50 g water
  μg roflumilast per mL blend (saturation concentration): 2.29 µg/mL
Equal molar solvent-water blend, solvent 5-methyloxolan-2-one (108-29-2), 2.51 g solvent, 14.03 g water
  μg roflumilast per mL blend (saturation concentration): 7.80 µg/mL
Equal molar solvent-water blend, solvent Pantolactone (599-04-2), 2.00 g solvent, 14.41 g water
  μg roflumilast per mL blend (saturation concentration): 0.96 µg/mL
Equal molar solvent-water blend, solvent dipropylene glycol (25265-71-8), 2.02 g solvent, 14.84 g water
  μg roflumilast per mL blend (saturation concentration): 2.27 µg/mL
Equal molar solvent-water blend, solvent propylene glycol methyl ethyl acetate (107-98-2), 2.50 g solvent, 12.52 g water
  μg roflumilast per mL blend (saturation concentration): 6.04 µg/mL
